Legend:
Rhyzopertha dominica = assay: Insecticidal activity against Rhyzopertha dominica after 24 hr; assay type: functional
Musca domestica = assay: Insecticidal activity against Musca domestica (house fly) after 24 hr; assay type: functional

| Structure (SMILES) | LC50 (Rhyzopertha dominica) | LC50 (Musca domestica) |
| --- | --- | --- |
| C=CC(C#N)OC (stereo unspecified) | 9.06 µM | 4.22 µM |
| COP(=O)(OC)OC=C(Cl)Cl [DICHLORVOS] | 1.31 µM | 0.05 µM |
| CC(O)(C#N)CF (stereo unspecified) | 3.2 µM | 0.87 µM |
| CC(C)(O)C#N [DIMETHYLKETONE CYANOHYDRIN] | 4.7 µM | 0.82 µM |
| C=CC(C#N)OC(C)=O (stereo unspecified) [1-CYANOALLYL ACETATE] | 2.96 µM | 2.08 µM |
| C=CC(C)(O)C#N (stereo unspecified) [METHYLVINYL KETONE CYANOHYDRIN] | 9.47 µM | 2.27 µM |
| C=CC(O)C#N (stereo unspecified) | 4.45 µM | 0.67 µM |
| C=CC(C#N)OC(=O)C(C)(C)C (stereo unspecified) [1-CYANOALLYL PIVALATE] | 14.4 µM | 8.19 µM |
| CC(O)(C#N)C1CC1 (stereo unspecified) [CYCLOPROPYLMETHYLKETONE CYANOHYDRIN] | 3.6 µM | 1.35 µM |
| CC=C(Cl)Cl [DICHLOROPROPENE] | 49.3 µM | 8.11 µM |
| C=CC(C#N)OC(=O)CC (stereo unspecified) [1-CYANOALLYL PROPIONATE] | 5.03 µM | 4.74 µM |
| N#CC(O)C1CC1 (stereo unspecified) [CYCLOPROPYLCARBOXALDEHYDE] | 4.12 µM | 1.54 µM |
| CCC(C)(O)C#N (stereo unspecified) [METHYLETHYL KETONE CYANOHYDRIN] | 4.14 µM | 0.91 µM |

Source: ChEMBL document CHEMBL3046119, “QSAR evaluation of cyanohydrins' fumigation toxicity to house fly (Musca domestica) and lesser grain borer (Rhyzopertha dominica)” (2002)
